From ChEMBL document CHEMBL1201862, “PubChem BioAssay data set” (2004)
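Exposure lasted 48 hours, with cells grown in 96-well plates and compounds tested at five concentrations. GI50 is the concentration that inhibits growth by half.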 Active and inactive are the calls of the source. Rule as the data show it: active = GI50 up to about 1.1 µM and inactive = higher.

Columns and labels:
Assay in all cases: DTP human tumour cell line panel, 48 h
ACHN = tested on: ACHN
CAKI-1 = tested on: CAKI-1
CCRF-CEM = tested on: CCRF-CEM
COLO 205 = tested on: COLO 205
EKVX = tested on: EKVX
HT-29 = tested on: HT-29
MCF7 = tested on: MCF7
MDA-N = tested on: MDA-N
Malme-3M = tested on: Malme-3M
NCI-H226 = tested on: NCI-H226
NCI-H522 = tested on: NCI-H522
NCI/ADR-RES = tested on: NCI/ADR-RES
OVCAR-3 = tested on: OVCAR-3
OVCAR-8 = tested on: OVCAR-8
PC-3 = tested on: PC-3
RXF 393 = tested on: RXF 393
M14 = tested on: M14
SK-MEL-2 = tested on: SK-MEL-2
SK-OV-3 = tested on: SK-OV-3
UACC-62 = tested on: UACC-62

| Compound | GI50 (ACHN) | GI50 (CAKI-1) | GI50 (CCRF-CEM) | GI50 (COLO 205) | GI50 (EKVX) | GI50 (HT-29) | GI50 (MCF7) | GI50 (MDA-N) | GI50 (Malme-3M) | GI50 (NCI-H226) | GI50 (NCI-H522) | GI50 (NCI/ADR-RES) | GI50 (OVCAR-3) | GI50 (OVCAR-8) | GI50 (PC-3) | GI50 (RXF 393) | GI50 (M14) | GI50 (SK-MEL-2) | GI50 (SK-OV-3) | GI50 (UACC-62) |
| --- | --- | --- | --- | --- | --- | --- | --- | --- | --- | --- | --- | --- | --- | --- | --- | --- | --- | --- | --- | --- |
| CCNC(=O)c1c(O)nc2ccccc2c1O | 40.5 µM (inactive) | 55.5 µM (inactive) | 52.2 µM (inactive) | 56.9 µM (inactive) | 32.3 µM (inactive) | 46.2 µM (inactive) | 51.8 µM (inactive) | 84.9 µM (inactive) | > 100 µM (inactive) | > 100 µM (inactive) | 69.2 µM (inactive) | > 100 µM (inactive) | 61.9 µM (inactive) | > 100 µM (inactive) | 49.9 µM (inactive) | 22.1 µM (inactive) |  |  |  |  |
| CCCn1c(=O)c(N2CCN(c3ccccc3)CC2)nc2sc3ccccc3c21 | > 100 µM (inactive) | > 100 µM (inactive) | > 100 µM (inactive) | > 100 µM (inactive) | > 100 µM (inactive) | > 100 µM (inactive) | > 100 µM (inactive) | > 100 µM (inactive) | > 100 µM (inactive) |  | > 100 µM (inactive) | > 100 µM (inactive) | > 100 µM (inactive) | > 100 µM (inactive) | > 100 µM (inactive) |  | > 100 µM (inactive) | > 100 µM (inactive) | > 100 µM (inactive) | > 100 µM (inactive) |
| O=C(/C=C/c1ccc(OCc2cccc(Cl)c2)cc1)NO | 11.3 µM (inactive) | 13.5 µM (inactive) | 2.65 µM (inactive) | 14 µM (inactive) | 23.9 µM (inactive) | 13.6 µM (inactive) | 39.5 µM (inactive) | 18.6 µM (inactive) |  | 14 µM (inactive) | 7.41 µM (inactive) | 5.78 µM (inactive) | 19.2 µM (inactive) | 6.31 µM (inactive) | 12.6 µM (inactive) | 15.5 µM (inactive) | 21 µM (inactive) | 18 µM (inactive) | 17.9 µM (inactive) | 13.1 µM (inactive) |
| COc1cc(C=O)cc(/C=N/c2ccccn2)c1O | 2.34 µM (inactive) | 2.94 µM (inactive) | 4.67 µM (inactive) | 7.08 µM (inactive) | 23.4 µM (inactive) | 11.5 µM (inactive) | 52.1 µM (inactive) | 7.23 µM (inactive) | 2.47 µM (inactive) | 4.84 µM (inactive) |  | 10.8 µM (inactive) | 19.8 µM (inactive) | 2.78 µM (inactive) | 3.64 µM (inactive) | 1.56 µM (inactive) | 6.87 µM (inactive) | 2.57 µM (inactive) | 4.98 µM (inactive) | 30 µM (inactive) |
| CCOC(=O)/C=C(\C(=O)OCC)n1ccc(N)nc1=O | > 100 µM (inactive) | 37.7 µM (inactive) | 22.4 µM (inactive) | > 100 µM (inactive) | 62.8 µM (inactive) | 52.2 µM (inactive) | > 100 µM (inactive) | > 100 µM (inactive) | 45.7 µM (inactive) | > 100 µM (inactive) | 18.2 µM (inactive) | > 100 µM (inactive) | > 100 µM (inactive) | > 100 µM (inactive) | > 100 µM (inactive) |  | > 100 µM (inactive) | > 100 µM (inactive) | > 100 µM (inactive) | > 100 µM (inactive) |
| N#CCCN(CCCN(CCCN(C(=O)Nc1ccccc1)c1ccccc1)C(=O)Nc1ccccc1)C(=O)Nc1ccccc1 | > 8.75 µM (inactive) | > 8.75 µM (inactive) | 6.14 µM (inactive) | > 8.75 µM (inactive) | > 8.75 µM (inactive) | > 8.75 µM (inactive) | > 8.75 µM (inactive) | > 8.75 µM (inactive) | > 8.75 µM (inactive) | 31.4 µM (inactive) |  | > 8.75 µM (inactive) | > 8.75 µM (inactive) | > 8.75 µM (inactive) | > 8.75 µM (inactive) | > 8.75 µM (inactive) | > 8.75 µM (inactive) | > 8.75 µM (inactive) | > 8.75 µM (inactive) | > 8.75 µM (inactive) |
| Nc1nc2c(=O)c3ccccc3sc2s1 | 45.5 µM (inactive) | 20.4 µM (inactive) | 78.3 µM (inactive) | 96.4 µM (inactive) | 23 µM (inactive) | 54.8 µM (inactive) | 5.96 µM (inactive) | > 100 µM (inactive) |  | 21.7 µM (inactive) |  | 25.9 µM (inactive) | 56.2 µM (inactive) | 22.6 µM (inactive) | 60 µM (inactive) | 39.8 µM (inactive) | > 100 µM (inactive) | > 100 µM (inactive) |  | 26.6 µM (inactive) |
| COc1ccc(NC(=O)N(C)CC2(O)CCC(C(C)(C)C)CC2)cc1 (configuration not stated) | > 100 µM (inactive) | < 0.01 µM (active) | 42.5 µM (inactive) | 36.1 µM (inactive) | 56.4 µM (inactive) | 32.5 µM (inactive) | 19.4 µM (inactive) | 55.1 µM (inactive) | 24.8 µM (inactive) |  | 32.7 µM (inactive) | 54.5 µM (inactive) | 23 µM (inactive) | 60.8 µM (inactive) | 14.7 µM (inactive) | 24.8 µM (inactive) | > 100 µM (inactive) | 63.8 µM (inactive) | 80.9 µM (inactive) | 35.5 µM (inactive) |
| COc1ccc(C2C(C#N)=C(S)N(C3OC(CO)C(O)C(O)C3O)C(c3ccccc3)=C2C(C)=O)cc1 (configuration not stated) | 83.9 µM (inactive) |  | 63.1 µM (inactive) | > 100 µM (inactive) |  | 46.1 µM (inactive) | 72.1 µM (inactive) | 37.2 µM (inactive) | 70.6 µM (inactive) | > 100 µM (inactive) | 26.9 µM (inactive) | > 100 µM (inactive) | 22.2 µM (inactive) | 63.7 µM (inactive) | 48.2 µM (inactive) | > 100 µM (inactive) | 65 µM (inactive) | 49.7 µM (inactive) |  | 58.6 µM (inactive) |
| Cc1nn(-c2ccccc2)c(C)c1/C=N/N=C1\S/C(=C\c2ccc(Cl)cc2)C(=O)N1c1ccccc1 | 68.7 µM (inactive) | > 100 µM (inactive) | > 100 µM (inactive) | > 100 µM (inactive) | > 100 µM (inactive) | 16.6 µM (inactive) | 17.3 µM (inactive) | 62.5 µM (inactive) | 28.1 µM (inactive) | > 100 µM (inactive) |  | 17.2 µM (inactive) | > 100 µM (inactive) | 40.3 µM (inactive) | > 100 µM (inactive) | 12.6 µM (inactive) | > 100 µM (inactive) | > 100 µM (inactive) | > 100 µM (inactive) | 16.8 µM (inactive) |
| CC1C(C)(C)C23CC12C1(OCCO1)C3Br (configuration not stated) | > 100 µM (inactive) | > 100 µM (inactive) | > 100 µM (inactive) | > 100 µM (inactive) | > 100 µM (inactive) | > 100 µM (inactive) | > 100 µM (inactive) | > 100 µM (inactive) | > 100 µM (inactive) | > 100 µM (inactive) |  | > 100 µM (inactive) | > 100 µM (inactive) | > 100 µM (inactive) | > 100 µM (inactive) | > 100 µM (inactive) | > 100 µM (inactive) |  | > 100 µM (inactive) | > 100 µM (inactive) |
| O=C1C2=Cc3ccccc3OC2(O)Oc2cc(O)cc(O)c21 (configuration not stated) | > 100 µM (inactive) | > 100 µM (inactive) | 57.4 µM (inactive) | > 100 µM (inactive) | > 100 µM (inactive) | > 100 µM (inactive) | > 100 µM (inactive) | > 100 µM (inactive) | > 100 µM (inactive) | > 100 µM (inactive) |  | > 100 µM (inactive) | > 10 µM (inactive) | > 100 µM (inactive) | > 100 µM (inactive) | > 100 µM (inactive) | > 100 µM (inactive) | > 100 µM (inactive) | > 100 µM (inactive) | 71.8 µM (inactive) |
| COc1ccc(/N=N/c2c(C)c(C#N)c(=S)n(C3OC(CO)C(O)C(O)C3O)c2C)cc1 (configuration not stated) | 36.4 µM (inactive) | 56.2 µM (inactive) | 23.7 µM (inactive) | 58.3 µM (inactive) |  | 37.9 µM (inactive) | 33 µM (inactive) | 30.6 µM (inactive) |  |  |  | > 100 µM (inactive) | 34.4 µM (inactive) |  | 31.5 µM (inactive) | > 100 µM (inactive) | 26.7 µM (inactive) | 71.3 µM (inactive) | > 100 µM (inactive) | 30.4 µM (inactive) |
| CSC1=N/C(=C\c2ccco2)C(=O)N1CN1CCCCC1 | 69.5 µM (inactive) |  |  | 38.4 µM (inactive) | > 100 µM (inactive) | 51.6 µM (inactive) | 17.3 µM (inactive) | > 100 µM (inactive) | > 100 µM (inactive) | > 100 µM (inactive) | > 100 µM (inactive) | > 100 µM (inactive) | > 100 µM (inactive) | 75.9 µM (inactive) | > 100 µM (inactive) |  | 85.3 µM (inactive) | > 100 µM (inactive) | > 100 µM (inactive) | 33.1 µM (inactive) |
| CCOC(OCC)N1C(=O)C2(C(OCC)OCC)CC3C(OC(=O)N3N)c3cccc1c32 (configuration not stated) | > 100 µM (inactive) | > 100 µM (inactive) | 54.2 µM (inactive) | > 100 µM (inactive) | > 100 µM (inactive) | > 100 µM (inactive) | > 100 µM (inactive) | > 100 µM (inactive) | > 100 µM (inactive) | > 100 µM (inactive) |  | > 100 µM (inactive) | > 100 µM (inactive) | > 100 µM (inactive) |  | > 100 µM (inactive) |  |  | > 100 µM (inactive) | > 100 µM (inactive) |
